Patent US20190353647A1, “NOVEL REAL-TIME MULTIPLEXED, MULTI-COLOR BIOLUMINESCENCE RESONANCE ENERGY TRANSFER ASSAY, APPARATUS, AND USES THEREOF” (Universite de Bordeaux, priority 2016, published 2019)

Biological target: T1, TRPV1 (Homo sapiens, UniProt Q8NER1)
T1 construct: expressed in transfected cells; host or cells: HEK293T
Experiment: Intermolecular BRET assay, TRPV1-Luc/YFP-CaM in HEK293T cells
Type: cell-based
Details: for Effect on CAPS-induced BRET increase: intermolecular test
Text: In order to generate the BRET constructs, super Yellow Fluorescent Protein 2 and Renilla Luciferase II were used to improve the brightness of the assay. They were referred as YFP and Luc for short in the rest of the manuscript. The cDNA of Luc and YFP were first cloned together using a three-piece ligation in the BamHI/XhoI site of pcDNA3.1(+) (Invitrogen, Carlsbad, Calif., USA), yielding two expression vectors pcDNA3.1 YFP-Luc where YFP was cloned in-fusion at the N-terminal of Luc, and pcDNA3.1 Luc-YFP where Luc was cloned in-fusion at the N-terminal of YFP. Both YFP and Luc were amplified by PCR from the pcDNA3-YFP-EPAC-Luc vector. Luc was cloned either at the N-terminal of YFP as a HindIII-EcoRI fragment (primers used: “Luc_HindIII_ATGN-term sense” and “Luc_no Stop_EcoRI_N-term antisense”) or at the COOH-terminal of YFP as an EcoRI-XhoI fragment (primer used: “Luc_EcoRI_ATG_C-term sense” and “Luc_XhoI_Stop_C-term antisense”). In parallel, YFP was cloned either at the N-terminal of Luc as a HindIII-EcoRI fragment (primers used: “YFP_HindIII_ATG_N-term sense” and “YFP_no Stop_EcoRI_N-term antisense”) or at the COOH-terminal of Luc as a EcoRI-XhoI fragment (primer used: “YFP_EcoRI_ATG_C-term sense” and “YFP_XhoI_Stop_C-term antisense”). The sequence joining Luc and YFP sequence encoded […] (SEQ ID NO: 18) as a linker, and contained an AgeI restriction site. The YFP-hTRPV1-Luc expression vector was obtained by subcloning the human TRPV1 cDNA from the pDONR201-hTRPV1 vector (Harvard Medical School PlasmID Repository, clone HsCD00081472) as an EcoRI PCR fragment in the EcoRI site of the vector pcDNA3.1 YFP-Luc (primer used: “hTRPV1_EcoRI_Fus_Sense” and “hTRPV1_EcoRI_Fus_antisense”). The hTRPV1-Luc expression vector was obtained by subcloning the cDNA of hTRPV1 as a HindIII-EcoRI fragment in place of the YFP in the HindIII-EcoRI site of the pcDNA3.1 YFP-Luc vector (primer used: “hTRPV1_HindIII_ATG_Sense” and “hTRPV1_EcoRI_Fus_antisense”). The Luc-hTRPV3 expression vector was obtained by subcloning the cDNA of hTRPV3 (Harvard Medical School PlasmID Repository, clone HsCD00341603) as a AgeI-XhoI fragment in place of the YFP in the AgeI-XhoI sites of the pcDNA3.1 Luc-YFP vector (primer used: “hTRPV3_AgeI_ATG_Sense” and “hTRPV3_Stop_XhoI_antisense”). The hTRPV4-Luc expression vector was obtained by subcloning the cDNA of hTRPV4 as a BamHI-AgeI fragment in place of the YFP in the BamHI-AgeI site of the pcDNA3.1 YFP-Luc vector (primer used: “hTRPV4_BamHI_ATG_Sense” and hTRPV4_AgeI_Fus_antisense”). In each case, the sequence joining the cDNA of interest and either Luc or YFP sequence encoded […] (SEQ ID NO: 18) as a linker.
The cDNA of mAmetrine (Plasmid #54660) and LssmOrange (Plasmid #37130) were obtained from AddGene plasmid repository. The cDNA of aquamarine, mAmetrine and LssmOrange were all subcloned as a HindIII-EcoRI fragment in place of the YFP in the HindIII-EcoRI site of the pcDNA3.1 YFP-Luc vector (primer used: “YFP_HindIII_ATG_N-term sense” and “YFP_no Stop_EcoRI_N-term antisense”) to yield pcDNA3.1 FP-Luc expression vectors (“FP” being any fluorescent protein between aquamarine, mAmetrine and LssmOrange). […] A similar strategy was used to obtain the FP-CaM expression vector using the pcDNA3.1 FP-Luc expression vector instead of the pcDNA3.1 YFP-Luc.
HEK293T cells were maintained in Dulbecco's modified Eagle's medium-high Glucose (DMEM) (D6429, Sigma) supplemented with 10% fetal bovine serum, 100 units mL-1 penicillin and streptomycin. Twenty-four hours before transfection, cells were seeded at a density of 500,000 cells in 6-well dishes. Transient transfections were performed using polyethylenimine (PEI, linear, Mr 25,000; catalogue number 23966 Polysciences, Inc., Warrington, Pa., USA) with a PEI:DNA ratio of 4:1. Usually, 0.1-0.25 μg of the donor constructions and 1.75-1.9 μg of the acceptors constructions were transfected for the BRET measurement.

[1] = TRPV1-Luc/YFP-CaM titration, presence vs absence of CAPS
[2] = temperature rise from 25 to 42° C., TRPV1-Luc/YFP-CaM

T1 sequence (Q8NER1 whole entry): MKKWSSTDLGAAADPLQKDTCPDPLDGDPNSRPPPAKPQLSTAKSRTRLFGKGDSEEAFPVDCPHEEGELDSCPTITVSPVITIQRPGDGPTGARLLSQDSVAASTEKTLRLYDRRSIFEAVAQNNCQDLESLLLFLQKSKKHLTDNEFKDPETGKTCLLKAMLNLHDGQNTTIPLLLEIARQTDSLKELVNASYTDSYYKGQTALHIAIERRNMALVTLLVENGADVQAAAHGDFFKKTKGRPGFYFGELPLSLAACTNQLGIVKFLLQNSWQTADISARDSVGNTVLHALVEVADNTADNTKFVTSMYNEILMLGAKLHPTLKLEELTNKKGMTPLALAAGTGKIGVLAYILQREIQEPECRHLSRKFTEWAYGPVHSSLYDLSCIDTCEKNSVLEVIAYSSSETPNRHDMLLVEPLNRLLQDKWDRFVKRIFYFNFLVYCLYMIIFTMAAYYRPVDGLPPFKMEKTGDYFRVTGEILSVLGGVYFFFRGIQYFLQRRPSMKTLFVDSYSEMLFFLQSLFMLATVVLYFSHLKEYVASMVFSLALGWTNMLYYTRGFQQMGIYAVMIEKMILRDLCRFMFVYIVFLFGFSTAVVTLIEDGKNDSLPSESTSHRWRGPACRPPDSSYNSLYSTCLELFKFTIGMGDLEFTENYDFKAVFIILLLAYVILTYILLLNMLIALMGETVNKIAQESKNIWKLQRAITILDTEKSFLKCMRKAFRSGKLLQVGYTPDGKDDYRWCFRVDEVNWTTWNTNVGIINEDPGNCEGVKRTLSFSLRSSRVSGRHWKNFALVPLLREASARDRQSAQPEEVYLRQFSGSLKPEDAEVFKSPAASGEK

SMILES | Sensitivity of TRPV1-Luc/YFP-CaM interaction (HEK293T, dose-response, FIG. 1) | Change of basal BRET signal (TRPV1-Luc/YFP-CaM) | BRET50 (concentration of YFP-CaM needed to reach 50% of maximal BRET signal) [1] | Maximal BRET signal in BRET titration curves [1] | Change in CAPS potency on temperature rise [2] | Change in maximal efficacy on temperature rise [2] | Effect on CAPS-induced BRET increase (TRPV1-Luc/YFP-CaM) | BRET signal on heating from 25 to 50° C. after preincubation (TRPV1-Luc/YFP-CaM, cells preincubated with the compound)
COc1cc(CNC(=O)CCCC/C=C/C(C)C)ccc1O [CAPS, Capsaicin] | sensitive | increased with a first order kinetic | diminished | dramatically increased | leftward shift | increase | – | –
CC(=O)Nc1nc2c(Oc3cc(-c4ccc(C(F)(F)F)cc4)ncn3)cccc2s1 [AMG517] | – | – | – | – | – | – | inhibited | –
Oc1cc2c(cc1O)CN(C(=S)NCCc1ccc(Cl)cc1)CCC2 [CPZ, Capsazepine] | – | – | – | – | – | – | inhibited | no significant increase
